Experimental data reported in ChEMBL document CHEMBL1909046, “DrugMatrix in vitro pharmacology data”.

How the values were obtained:
[1] = target: Sigma non-opioid intracellular receptor 1 (Homo sapiens, UniProt Q99720); test: DRUGMATRIX: Sigma1 radioligand binding (ligand: [3H] Haloperidol); assay type: cell membranes, Jurkat, Membrane; conditions: jurkat; Not Active = under 50% inhibition at 10 µM
[2] = target: Vascular endothelial growth factor receptor 1 (Homo sapiens, UniProt P17948); assay type: cell-based; conditions: huvec; note: in other assays of this panel Not Active means under 50% inhibition at 10 µM
[3] = target: T1, Cholecystokinin receptor type A (Homo sapiens, UniProt P32238); assay type: cell membranes, Membrane; conditions: 1321-n1; note: in other assays of this panel Not Active means under 50% inhibition at 10 µM
T1 sequence (P32238 whole entry): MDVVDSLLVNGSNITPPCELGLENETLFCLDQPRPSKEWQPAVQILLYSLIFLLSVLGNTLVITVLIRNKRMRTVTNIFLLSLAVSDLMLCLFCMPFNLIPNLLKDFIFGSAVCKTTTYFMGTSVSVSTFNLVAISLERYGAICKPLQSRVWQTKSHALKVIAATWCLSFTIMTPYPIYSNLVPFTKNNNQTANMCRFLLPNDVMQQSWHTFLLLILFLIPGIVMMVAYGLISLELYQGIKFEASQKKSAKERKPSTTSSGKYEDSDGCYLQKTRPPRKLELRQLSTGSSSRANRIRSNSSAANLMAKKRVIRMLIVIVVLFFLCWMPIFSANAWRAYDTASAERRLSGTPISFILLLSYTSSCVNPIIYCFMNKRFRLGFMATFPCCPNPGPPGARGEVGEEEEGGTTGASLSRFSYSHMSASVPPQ

[4] = target: T2, 3-hydroxy-3-methylglutaryl-coenzyme A reductase (Homo sapiens, UniProt P04035); parameters: species or system Escherichia coli;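 note: enzyme inhibition assay of HMG-CoA reductase using radiolabeled [14C]HMG-CoA as substrate; in other assays of this panel Not Active means under 50% inhibition at 10 µM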
T2 sequence (P04035 whole entry): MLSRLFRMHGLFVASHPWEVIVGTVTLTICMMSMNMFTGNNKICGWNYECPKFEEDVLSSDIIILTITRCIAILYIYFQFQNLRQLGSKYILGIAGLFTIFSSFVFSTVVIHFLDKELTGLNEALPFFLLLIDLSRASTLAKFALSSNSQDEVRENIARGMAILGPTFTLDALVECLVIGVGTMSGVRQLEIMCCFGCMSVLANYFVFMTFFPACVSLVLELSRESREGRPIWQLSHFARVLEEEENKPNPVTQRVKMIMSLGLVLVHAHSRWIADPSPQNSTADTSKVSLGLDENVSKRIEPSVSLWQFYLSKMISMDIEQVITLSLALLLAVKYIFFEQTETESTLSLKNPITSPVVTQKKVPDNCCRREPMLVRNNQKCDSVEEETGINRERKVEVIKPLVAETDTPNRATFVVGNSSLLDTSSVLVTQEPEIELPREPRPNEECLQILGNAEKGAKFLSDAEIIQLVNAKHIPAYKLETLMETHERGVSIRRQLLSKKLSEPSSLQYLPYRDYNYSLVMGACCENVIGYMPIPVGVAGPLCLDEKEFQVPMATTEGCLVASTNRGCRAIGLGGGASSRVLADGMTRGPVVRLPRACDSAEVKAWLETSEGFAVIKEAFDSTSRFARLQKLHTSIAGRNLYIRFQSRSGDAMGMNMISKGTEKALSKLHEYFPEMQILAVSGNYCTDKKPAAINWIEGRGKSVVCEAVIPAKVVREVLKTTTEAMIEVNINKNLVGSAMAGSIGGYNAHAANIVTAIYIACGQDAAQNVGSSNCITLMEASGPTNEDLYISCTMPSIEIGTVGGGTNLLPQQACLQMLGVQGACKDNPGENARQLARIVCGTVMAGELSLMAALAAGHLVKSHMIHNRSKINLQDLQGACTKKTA

[5] = DRUGMATRIX: Potassium Channel [KATP] radioligand binding (ligand: [3H] Glyburide); assay type: cell membranes, Membrane; conditions: hit-t15; Not Active = under 50% inhibition at 10 µM
Progesterone receptor = target: T3, Progesterone receptor (Bos taurus, UniProt Q690N0); test: DRUGMATRIX: Progesterone radioligand binding (ligand: [3H] R-5020); assay type: tissue-based, Uterus; conditions: Not Active = under 50% inhibition at 10 µM
T3 sequence (Q690N0 whole entry): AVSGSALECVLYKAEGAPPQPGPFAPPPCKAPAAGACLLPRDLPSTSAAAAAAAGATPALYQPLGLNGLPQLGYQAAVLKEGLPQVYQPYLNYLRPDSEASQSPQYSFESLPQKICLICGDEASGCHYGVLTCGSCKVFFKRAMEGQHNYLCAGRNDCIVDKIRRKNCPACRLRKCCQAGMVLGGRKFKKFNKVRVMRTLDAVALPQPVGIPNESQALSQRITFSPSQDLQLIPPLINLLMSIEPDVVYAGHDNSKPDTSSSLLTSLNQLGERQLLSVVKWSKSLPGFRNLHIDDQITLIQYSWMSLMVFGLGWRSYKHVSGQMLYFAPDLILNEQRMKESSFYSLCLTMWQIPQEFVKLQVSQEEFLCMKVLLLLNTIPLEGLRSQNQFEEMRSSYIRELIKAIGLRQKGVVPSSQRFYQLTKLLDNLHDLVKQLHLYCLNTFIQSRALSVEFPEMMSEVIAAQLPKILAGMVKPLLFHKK

Neutrophil elastase = target: T4, Neutrophil elastase (Homo sapiens, UniProt P08246); assay type: tissue-based;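 note: inhibition of neutrophil elastase enzyme activity, measured with a p-nitroanilide-linked peptide substrate; in other assays of this panel Not Active means under 50% inhibition at 10 µM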
T4 sequence (P08246 whole entry): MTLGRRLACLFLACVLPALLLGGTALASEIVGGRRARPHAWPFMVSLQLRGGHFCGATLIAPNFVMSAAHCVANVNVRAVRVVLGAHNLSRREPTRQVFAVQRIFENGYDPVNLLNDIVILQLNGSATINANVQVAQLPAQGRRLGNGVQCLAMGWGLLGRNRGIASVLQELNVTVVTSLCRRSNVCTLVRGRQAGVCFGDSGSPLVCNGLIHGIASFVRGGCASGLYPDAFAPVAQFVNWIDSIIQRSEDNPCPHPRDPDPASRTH

[6] = target: Epidermal growth factor receptor (Homo sapiens, UniProt P00533); test: DRUGMATRIX: Protein Tyrosine Kinase, EGF Receptor enzyme inhibition (substrate: Poly(Glu:Tyr)); assay type: cell-based, Insect cells; conditions: insect cells; Not Active = under 50% inhibition at 10 µM
Cytochrome P450 2C19 = Cytochrome P450 2C19 (Homo sapiens, UniProt P33261); conditions: bti-tn-5b1-4; note: in other assays of this panel Not Active means under 50% inhibition at 10 µM
Cytochrome P450 2C19, sequence (P33261 whole entry): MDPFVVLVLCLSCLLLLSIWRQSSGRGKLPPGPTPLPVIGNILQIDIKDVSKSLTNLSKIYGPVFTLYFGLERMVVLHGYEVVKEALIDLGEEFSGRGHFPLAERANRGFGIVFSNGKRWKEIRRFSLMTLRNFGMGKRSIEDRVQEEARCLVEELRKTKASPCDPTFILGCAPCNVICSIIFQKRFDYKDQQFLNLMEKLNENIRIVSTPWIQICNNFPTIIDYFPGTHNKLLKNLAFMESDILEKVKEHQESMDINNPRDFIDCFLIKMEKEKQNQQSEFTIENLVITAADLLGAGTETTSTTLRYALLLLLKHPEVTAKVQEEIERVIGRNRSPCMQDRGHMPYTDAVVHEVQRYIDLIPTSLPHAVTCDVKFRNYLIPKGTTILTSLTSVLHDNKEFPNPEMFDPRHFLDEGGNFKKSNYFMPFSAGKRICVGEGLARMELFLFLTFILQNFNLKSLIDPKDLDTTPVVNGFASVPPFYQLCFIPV

Sigma non-opioid intracellular receptor 1, sequence (Q99720 whole entry): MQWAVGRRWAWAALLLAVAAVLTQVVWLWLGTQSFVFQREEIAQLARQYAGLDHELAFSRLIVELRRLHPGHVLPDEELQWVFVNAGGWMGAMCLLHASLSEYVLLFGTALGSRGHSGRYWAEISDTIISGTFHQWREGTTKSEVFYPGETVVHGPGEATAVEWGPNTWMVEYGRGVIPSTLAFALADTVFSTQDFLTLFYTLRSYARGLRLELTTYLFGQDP
Epidermal growth factor receptor, sequence (P00533 whole entry): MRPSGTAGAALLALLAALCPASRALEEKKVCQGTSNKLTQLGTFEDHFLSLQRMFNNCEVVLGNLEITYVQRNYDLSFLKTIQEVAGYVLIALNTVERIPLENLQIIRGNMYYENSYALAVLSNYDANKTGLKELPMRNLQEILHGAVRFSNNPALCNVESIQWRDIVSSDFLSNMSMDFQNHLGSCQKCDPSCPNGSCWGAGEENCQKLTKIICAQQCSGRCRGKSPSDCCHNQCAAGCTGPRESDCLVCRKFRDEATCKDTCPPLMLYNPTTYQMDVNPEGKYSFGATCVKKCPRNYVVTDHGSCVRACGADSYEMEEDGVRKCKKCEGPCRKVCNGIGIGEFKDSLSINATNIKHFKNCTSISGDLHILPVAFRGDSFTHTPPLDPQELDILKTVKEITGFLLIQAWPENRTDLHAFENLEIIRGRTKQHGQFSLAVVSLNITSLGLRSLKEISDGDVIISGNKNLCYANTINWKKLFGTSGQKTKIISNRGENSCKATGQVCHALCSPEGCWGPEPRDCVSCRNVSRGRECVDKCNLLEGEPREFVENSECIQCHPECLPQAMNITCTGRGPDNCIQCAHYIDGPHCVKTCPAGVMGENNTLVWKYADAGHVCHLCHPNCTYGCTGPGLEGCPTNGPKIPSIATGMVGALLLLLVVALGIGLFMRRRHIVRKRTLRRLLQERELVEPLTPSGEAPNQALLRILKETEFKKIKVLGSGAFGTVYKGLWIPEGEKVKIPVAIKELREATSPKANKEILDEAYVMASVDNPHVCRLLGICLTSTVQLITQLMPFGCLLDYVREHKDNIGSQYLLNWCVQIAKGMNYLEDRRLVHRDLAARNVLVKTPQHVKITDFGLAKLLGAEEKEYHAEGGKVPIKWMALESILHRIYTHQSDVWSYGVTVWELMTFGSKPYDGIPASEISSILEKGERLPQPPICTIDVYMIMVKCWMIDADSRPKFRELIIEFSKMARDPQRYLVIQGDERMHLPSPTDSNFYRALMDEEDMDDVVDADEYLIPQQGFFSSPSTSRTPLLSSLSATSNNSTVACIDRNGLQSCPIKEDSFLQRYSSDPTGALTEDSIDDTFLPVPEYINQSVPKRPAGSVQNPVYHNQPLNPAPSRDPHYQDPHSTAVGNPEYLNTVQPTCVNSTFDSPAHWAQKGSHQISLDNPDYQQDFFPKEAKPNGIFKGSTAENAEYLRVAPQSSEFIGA
Vascular endothelial growth factor receptor 1, sequence (P17948 whole entry): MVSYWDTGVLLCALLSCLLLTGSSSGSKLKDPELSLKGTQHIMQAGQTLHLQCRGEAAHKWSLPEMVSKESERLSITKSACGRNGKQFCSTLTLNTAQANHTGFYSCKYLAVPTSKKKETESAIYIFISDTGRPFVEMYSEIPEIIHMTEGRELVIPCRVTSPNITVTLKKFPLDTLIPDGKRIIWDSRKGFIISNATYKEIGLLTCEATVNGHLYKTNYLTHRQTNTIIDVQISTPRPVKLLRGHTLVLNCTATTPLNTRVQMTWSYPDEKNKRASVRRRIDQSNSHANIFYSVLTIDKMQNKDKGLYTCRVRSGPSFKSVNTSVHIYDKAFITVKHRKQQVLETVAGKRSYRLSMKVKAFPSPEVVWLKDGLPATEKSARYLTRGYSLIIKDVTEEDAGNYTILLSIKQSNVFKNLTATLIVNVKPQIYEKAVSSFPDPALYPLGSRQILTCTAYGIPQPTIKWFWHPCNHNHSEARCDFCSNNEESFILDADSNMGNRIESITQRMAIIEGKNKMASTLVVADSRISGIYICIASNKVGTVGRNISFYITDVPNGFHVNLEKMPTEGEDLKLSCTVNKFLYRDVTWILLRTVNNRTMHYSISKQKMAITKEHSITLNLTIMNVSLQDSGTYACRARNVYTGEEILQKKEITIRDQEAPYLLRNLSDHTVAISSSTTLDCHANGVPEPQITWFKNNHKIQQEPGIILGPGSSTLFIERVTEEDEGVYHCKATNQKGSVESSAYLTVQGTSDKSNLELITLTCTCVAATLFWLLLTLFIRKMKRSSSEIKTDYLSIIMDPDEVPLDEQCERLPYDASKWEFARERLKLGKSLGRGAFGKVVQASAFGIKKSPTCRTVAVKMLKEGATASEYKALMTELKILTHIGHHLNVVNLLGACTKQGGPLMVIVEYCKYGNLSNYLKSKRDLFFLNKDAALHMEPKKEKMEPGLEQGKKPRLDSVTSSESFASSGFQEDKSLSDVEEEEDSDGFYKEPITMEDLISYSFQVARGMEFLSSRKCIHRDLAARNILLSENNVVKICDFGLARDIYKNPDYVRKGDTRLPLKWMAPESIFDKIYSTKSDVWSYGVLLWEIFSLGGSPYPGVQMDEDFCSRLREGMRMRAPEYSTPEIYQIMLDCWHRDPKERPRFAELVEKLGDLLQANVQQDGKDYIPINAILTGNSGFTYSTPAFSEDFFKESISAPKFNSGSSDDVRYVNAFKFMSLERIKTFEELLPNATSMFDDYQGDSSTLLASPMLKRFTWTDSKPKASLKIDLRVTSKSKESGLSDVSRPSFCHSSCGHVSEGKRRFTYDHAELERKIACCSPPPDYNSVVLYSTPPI

CC1(C)[C@@H](O[C@H]2O[C@H](C(=O)O)[C@@H](O)[C@H](O)[C@H]2O[C@@H]2O[C@H](C(=O)O)[C@@H](O)[C@H](O)[C@H]2O)CC[C@]2(C)[C@H]3C(=O)C=C4[C@@H]5C[C@@](C)(C(=O)O)CC[C@]5(C)CC[C@@]4(C)[C@]3(C)CC[C@@H]12 [GLYCYRRHIZIN]
Not Active: IC50 [1] | IC50 [2] | IC50 [3] | IC50 [4] | IC50 [5] | Ki [5] | IC50 (Progesterone receptor) | IC50 (Neutrophil elastase) | IC50 [6] | IC50 (Cytochrome P450 2C19) | Ki (Cytochrome P450 2C19)

COC1=CC(=O)C[C@@H](C)[C@]12Oc1c(Cl)c(OC)cc(OC)c1C2=O [GRISEOFULVIN]
Not Active: IC50 [1] | IC50 [2] | IC50 [3] | IC50 [4] | IC50 [5] | Ki [5] | IC50 (Progesterone receptor) | IC50 (Neutrophil elastase) | IC50 [6] | IC50 (Cytochrome P450 2C19) | Ki (Cytochrome P450 2C19)

C/C=C1\[C@H]2C=C(C)C[C@]1(N)c1ccc(=O)[nH]c1C2 [HUPERZINE A]
Not Active: IC50 [1] | IC50 [2] | IC50 [3] | IC50 [4] | IC50 [5] | Ki [5] | IC50 (Progesterone receptor) | IC50 (Neutrophil elastase) | IC50 [6] | IC50 (Cytochrome P450 2C19) | Ki (Cytochrome P450 2C19)

NS(=O)(=O)c1cc2c(cc1Cl)NCNS2(=O)=O [HYDROCHLOROTHIAZIDE]
Not Active: IC50 [1] | IC50 [2] | IC50 [3] | IC50 [4] | IC50 [5] | Ki [5] | IC50 (Progesterone receptor) | IC50 (Neutrophil elastase) | IC50 [6] | IC50 (Cytochrome P450 2C19) | Ki (Cytochrome P450 2C19)

CN1CCC[C@H]1c1cccnc1 [NICOTINE]
Not Active: IC50 [1] | IC50 [2] | IC50 [3] | IC50 [4] | IC50 [5] | Ki [5] | IC50 (Progesterone receptor) | IC50 (Neutrophil elastase) | IC50 [6] | IC50 (Cytochrome P450 2C19) | Ki (Cytochrome P450 2C19)

O=C1CN=C(c2ccccc2)c2cc([N+](=O)[O-])ccc2N1 [NITRAZEPAM]
Not Active: IC50 [1] | IC50 [2] | IC50 [3] | IC50 [4] | IC50 [5] | Ki [5] | IC50 (Progesterone receptor) | IC50 (Neutrophil elastase) | IC50 [6] | IC50 (Cytochrome P450 2C19) | Ki (Cytochrome P450 2C19)

CC1COc2c(N3CCN(C)CC3)c(F)cc3c(=O)c(C(=O)O)cn1c23 (centres undefined) [OFLOXACIN]
Not Active: IC50 [1] | IC50 [2] | IC50 [3] | IC50 [4] | IC50 [5] | Ki [5] | IC50 (Progesterone receptor) | IC50 (Neutrophil elastase) | IC50 [6] | IC50 (Cytochrome P450 2C19) | Ki (Cytochrome P450 2C19)

Oc1cccc2cccnc12 [OXYQUINOLINE]
Not Active: IC50 [1] | IC50 [2] | IC50 [3] | IC50 [4] | IC50 [5] | Ki [5] | IC50 (Progesterone receptor) | IC50 (Neutrophil elastase) | IC50 [6] | IC50 (Cytochrome P450 2C19) | Ki (Cytochrome P450 2C19)

CN(C)[C@@H]1C(O)=C(C(N)=O)C(=O)[C@@]2(O)C(O)=C3C(=O)c4c(O)cccc4[C@@](C)(O)[C@H]3[C@H](O)[C@@H]12 [OXYTETRACYCLINE]
Not Active: IC50 [1] | IC50 [2] | IC50 [3] | IC50 [4] | IC50 [5] | Ki [5] | IC50 (Progesterone receptor) | IC50 (Neutrophil elastase) | IC50 [6] | IC50 (Cytochrome P450 2C19) | Ki (Cytochrome P450 2C19)
